Source: ChEMBL document CHEMBL1201862, “PubChem BioAssay data set” (2004)
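Compound exposure: 48 hours, 5 concentrations, 96-well plates. GI50: concentration for 50% inhibition of growth.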 Active and inactive are the calls of the source. Cut-off read from the data, not from the text of the source: active = GI50 up to about 1.1 µM and inactive = higher.

How the values were obtained:
Assay in all cases: NCI-60 cell line screen, 48 h
OVCAR-5 = system: OVCAR-5
NCI-H522 = system: NCI-H522
EKVX = system: EKVX
TK-10 = system: TK-10
HCT-116 = system: HCT-116
NCI-H23 = system: NCI-H23
786-0 = system: 786-0
CCRF-CEM = system: CCRF-CEM
NCI-H226 = system: NCI-H226
MDA-N = system: MDA-N
COLO 205 = system: COLO 205
Hs-578T = system: Hs-578T
SN12C = system: SN12C
ACHN = system: ACHN
SK-MEL-5 = system: SK-MEL-5
SR = system: SR
BT-549 = system: BT-549
NCI-H460 = system: NCI-H460
UO-31 = system: UO-31
A498 = system: A498

Measured: GI50

Clc1ccc2nc3c(c(-c4ccccc4)nn3-c3ccccc3)c(-c3ccccc3)c2c1
inactive: OVCAR-5 > 100 µM | NCI-H522 > 100 µM | EKVX > 100 µM | TK-10 > 100 µM | HCT-116 > 100 µM | NCI-H23 > 100 µM | 786-0 > 100 µM | CCRF-CEM > 100 µM | NCI-H226 > 100 µM | MDA-N > 100 µM | COLO 205 > 100 µM | Hs-578T > 100 µM | SN12C > 100 µM | ACHN > 100 µM | SK-MEL-5 > 100 µM | SR > 100 µM | BT-549 > 100 µM | NCI-H460 > 100 µM | UO-31 > 100 µM

CCOC(=O)c1c(N)sc2c1C(C(=O)OCC)CC2 (stereo not drawn)
inactive: OVCAR-5 > 100 µM | EKVX > 100 µM | A498 14.3 µM | TK-10 > 100 µM | HCT-116 48.4 µM | NCI-H23 > 100 µM | 786-0 > 100 µM | NCI-H226 > 100 µM | MDA-N > 100 µM | COLO 205 > 100 µM | Hs-578T 93.8 µM | SN12C 40.5 µM | ACHN > 100 µM | SK-MEL-5 > 100 µM | SR 40 µM | BT-549 72.3 µM | NCI-H460 62.1 µM | UO-31 62.4 µM

CCC(C)c1cnc(CC(C)C)c(=O)[nH]1 (stereo not drawn)
inactive: OVCAR-5 > 100 µM | EKVX > 100 µM | A498 > 100 µM | TK-10 > 100 µM | HCT-116 > 100 µM | NCI-H23 > 100 µM | 786-0 > 100 µM | CCRF-CEM 89.5 µM | MDA-N > 100 µM | COLO 205 > 100 µM | Hs-578T > 100 µM | SN12C > 100 µM | ACHN > 100 µM | SK-MEL-5 > 100 µM | SR > 100 µM | BT-549 > 100 µM | NCI-H460 > 100 µM | UO-31 > 100 µM

CCc1[nH]nc(C(N)=O)c1/N=N/N(C)C
inactive: NCI-H522 37.3 µM | EKVX 57.5 µM | A498 > 100 µM | TK-10 > 100 µM | HCT-116 72.1 µM | NCI-H23 54.1 µM | 786-0 89.7 µM | CCRF-CEM 28.2 µM | NCI-H226 84.1 µM | MDA-N > 100 µM | COLO 205 98.9 µM | Hs-578T 67.9 µM | SN12C 44 µM | ACHN 36.5 µM | SK-MEL-5 70 µM | SR 10.1 µM | BT-549 21.8 µM | UO-31 2.58 µM

COC(=O)C(/C(=N/N)C(=O)Nc1cc(Cl)c(Cl)cc1Cl)c1nc2ccc(Cl)cc2nc1O (stereo not drawn)
inactive: OVCAR-5 > 100 µM | NCI-H522 38.9 µM | EKVX 29.1 µM | A498 > 100 µM | TK-10 > 100 µM | HCT-116 > 100 µM | NCI-H23 > 100 µM | 786-0 > 100 µM | CCRF-CEM > 10 µM | NCI-H226 > 100 µM | MDA-N > 100 µM | Hs-578T > 100 µM | SN12C > 100 µM | ACHN 44.8 µM | SK-MEL-5 > 100 µM | SR 87.1 µM | BT-549 > 100 µM | NCI-H460 > 100 µM | UO-31 42.5 µM

O=C(Cc1ccccc1)N/N=C(/CCN1CCCC1)CC(c1ccccc1)c1c(O)c2ccccc2oc1=O (stereo not drawn)
inactive: OVCAR-5 > 100 µM | NCI-H522 59 µM | EKVX > 100 µM | A498 28 µM | TK-10 > 100 µM | HCT-116 80.2 µM | NCI-H23 55.7 µM | 786-0 > 100 µM | CCRF-CEM 48.9 µM | NCI-H226 > 100 µM | MDA-N > 100 µM | COLO 205 23.9 µM | Hs-578T 76.7 µM | ACHN > 100 µM | SK-MEL-5 > 100 µM | SR 21.4 µM | BT-549 83.4 µM | UO-31 > 100 µM

CC(C)(C)C1CC[C@H](O)[C@H]([C@@H](O)CC2CC(=O)N(c3ccccc3)C(=O)C2)C1 (stereo partly drawn)
inactive: OVCAR-5 > 100 µM | NCI-H522 > 100 µM | EKVX 70 µM | A498 > 100 µM | TK-10 > 100 µM | HCT-116 60.5 µM | NCI-H23 > 100 µM | 786-0 > 100 µM | CCRF-CEM 51.9 µM | NCI-H226 > 100 µM | MDA-N > 100 µM | Hs-578T > 100 µM | SN12C > 100 µM | ACHN 69 µM | SK-MEL-5 45.2 µM | SR 40.9 µM | BT-549 29.4 µM | NCI-H460 44.2 µM | UO-31 76.4 µM

Cc1ncc([N+](=O)[O-])n1CCN(C)CCCCn1ccnc1[N+](=O)[O-]
inactive: OVCAR-5 > 100 µM | EKVX > 100 µM | A498 > 100 µM | TK-10 > 100 µM | HCT-116 > 100 µM | NCI-H23 > 100 µM | 786-0 > 100 µM | CCRF-CEM > 100 µM | NCI-H226 > 100 µM | MDA-N > 100 µM | COLO 205 > 100 µM | Hs-578T > 100 µM | SN12C > 100 µM | ACHN > 100 µM | SK-MEL-5 > 100 µM | SR > 100 µM | BT-549 > 100 µM | NCI-H460 > 100 µM | UO-31 > 100 µM
